“Also recorded” adds a separate entry of the source.
Legend:
[1] = test system: spontaneously contracting engineered cardiac tissue (gap junctions between hESC-CM); experiment: Laser confocal Ca2+ imaging (Fluo-4) of impulse propagation; format: cell-based, human; conditions: 1 mM, calcium imaging
Description: Laser scanning confocal Ca-imaging: Scaffolds were loaded with fluo-4 Ca AM (Molecular Probes) indicator to visualize free Ca^+2 levels. To this purpose, 5 mM stock solution of fluo-4 AM in DMSO was, diluted in standard hESC medium, at dilution of 1:1000 giving a final concentration of 5 μM. The non-ionic detergent Pluronic F-127 (Molecular Probes) was used to assist dispersion of the nonpolar fluo-4 AM ester in the aqueous media. Scaffolds were incubated for 45 minutes at 37° C. Following incubation the scaffolds were washed (×3) with indicator-free control tyrode solution removing any dye non-specifically associated with the cell surface. Afterwards the scaffolds were further incubated for 15 minutes allowing complete de-esterification of intracellular AM esters (according to manufacture's instructions). […]
Since the ultrastructural characterization clearly indicated the presence of gap junctions between adjacent hESC-CM (FIG. 7D), the present inventors sought to determine whether these formed gap junctions mediate impulse conduction between the hESC-CM and therefore allow synchronous contraction. […] The beating frequency of the spontaneously contracting cardiac tissue was evaluated following application of different pharmacological agents. […]

[2] = test system: spontaneously contracting engineered cardiac tissue; experiment: Beating frequency of engineered cardiac tissue after chronotropic agents; format: cell-based, human; conditions: 1 μM, n=4; before application 1.6±0.3 Hz (isoproterenol), 1.7±0.2 Hz (carbamylcholine)
Description: Since the ultrastructural characterization clearly indicated the presence of gap junctions between adjacent hESC-CM (FIG. 7D), the present inventors sought to determine whether these formed gap junctions mediate impulse conduction between the hESC-CM and therefore allow synchronous contraction. The gap junction uncoupler, 1-heptanol (1 mM), was applied to the spontaneously contracting engineered cardiac tissue. […] The beating frequency of the spontaneously contracting cardiac tissue was evaluated following application of different pharmacological agents. Appropriate positive and negative chronotropic responses were observed following application of the β-agonist, isoproterenol (1 μM) and the muscarinic agonist—carbamylcholine (1 μM). Thus, isoproterenol increased the beating frequency of the engineered cardiac issue from 1.6±0.3 Hz to 2.1±0.3 Hz (p<0.05, n=4), while carbamylcholine decreased the beating frequency from 1.7±0.2 Hz to 1.4±0.1 Hz (p=0.055, n=4).

## CCCCCCCO [1-heptanol]
[1]
  impulse propagation: complete inhibition; also recorded: completely inhibited

## C[N+](C)(C)CCOC(N)=O.[Cl-] [carbamylcholine]
[2]
  beating frequency after application of the agent: 1.4±0.1 Hz

## CC(C)NCC(O)c1ccc(O)c(O)c1 (stereo not drawn) [isoproterenol]
[2]
  beating frequency after application of the agent: 2.1±0.3 Hz
